In BindingDB's records for doi:10.1021/jm0110901 (Carlsberg Laboratory, 2002):

Molecular target: Cysteine protease B CPB2.8ΔCTE (Leishmania mexicana)
Assay: Inhibition of Leishmania mexicana Cysteine protease B (CPB2.8deltaCTE) was obtained in a solution-phase assay

In order of falling Ki:
1. CC[C@H](C)[C@H](N)C(=O)N[C@H](C(=O)N[C@H](C(=O)N[C@@H](CCCCN)CN[C@@H](C)C(=O)N[C@H](C(=O)N[C@@H](CC1CCCCC1)C(=O)N[C@H](C(=O)O)[C@@H](C)O)[C@@H](C)CC)[C@@H](C)O)C(C)C [2-(2-{2-[2-(6-Amino-2-{2-[2-(2-amino-3-methyl-pentanoylamino)-3-methyl-butyrylamino]-3-hydroxy-butyrylamino}-hexylamino)-propionylamino]-3-methyl-pentanoylamino}-3-cyclohexyl-propionylamino)-3-hydroxy-butyric acid]  100 µM
2. CC[C@H](C)[C@H](NC(=O)[C@H](CC(C)C)NC[C@H](CCCNC(=N)N)NC(=O)CNC(=O)[C@H](CC1CCCCC1)NC(=O)[C@@H](N)C(C)C)C(=O)N[C@@H](Cc1cnc[nH]1)C(=O)N[C@@H](CC(=O)O)C(=O)O [2-[2-{2-[2-(2-{2-[2-(2-Amino-3-methyl-butyrylamino)-3-cyclohexyl-propionylamino]-acetylamino}-5-guanidino-pentylamino)-4-methyl-pentanoylamino]-3-methyl-pentanoylamino}-3-(3H-imidazol-4-yl)-propionylamino]-succinic acid]  71.6 µM
3. CC[C@H](C)[C@H](N)C(=O)N[C@H](C(=O)NCC(=O)N[C@H](CN[C@@H](Cc1ccc(O)cc1)C(=O)N[C@H](C(=O)N[C@H](C(=O)N[C@@H](C)C(=O)O)C(C)C)[C@@H](C)CC)Cc1ccccc1)[C@@H](C)O  53.3 µM
4. H-AIWYWAAV-OH [2-(2-{2-[2-[2-[2-[2-(2-Amino-propionylamino)-3-methyl-pentanoylamino]-3-(1H-indol-3-yl)-propionylamino]-3-(4-hydroxy-phenyl)-propionylamino]-3-(1H-indol-3-yl)-propionylamino]-propionylamino}-propionylamino)-3-methyl-butyric acid]  44.7 µM
5. C[C@H](NC[C@H](Cc1ccccc1)NC(=O)[C@H](CCCCN)NC(=O)[C@H](CCCCN)NC(=O)[C@@H](N)CC(=O)O)C(=O)N[C@@H](CC1CCCCC1)C(=O)NCC(=O)N[C@@H](CCCCN)C(=O)O [6-Amino-2-(2-{2-[2-(2-{6-amino-2-[6-amino-2-(2-amino-3-carboxy-propionylamino)-hexanoylamino]-hexanoylamino}-3-phenyl-propylamino)-propionylamino]-3-cyclohexyl-propionylamino}-acetylamino)-hexanoic acid]  31.1 µM
6. CC[C@H](C)[C@H](NC[C@H](Cc1ccccc1)NC(=O)[C@H](Cc1cnc[nH]1)NC(=O)[C@H](CCC(N)=O)NC(=O)[C@@H](N)CC(=O)O)C(=O)N[C@H](C(=O)N[C@H](C(=O)N[C@@H](CCC(N)=O)C(=O)O)C(C)C)[C@@H](C)CC  30 µM
7. CC[C@H](C)[C@H](NC[C@H](Cc1ccccc1)NC(=O)[C@H](Cc1c[nH]cn1)NC(=O)[C@H](CCCCN)NC(=O)[C@@H](N)CC(=O)O)C(=O)N[C@H](C(=O)N[C@H](C(=O)N[C@@H](CCCCN)C(=O)O)C(C)C)[C@@H](C)CC  20 µM
8. CC[C@H](C)[C@H](NC(=O)[C@H](CC(C)C)NC[C@H](Cc1ccccc1)NC(=O)CNC(=O)[C@H](CCCCN)NC(=O)[C@@H](N)CC(=O)O)C(=O)N[C@H](C(=O)N[C@@H](CCCCN)C(=O)O)C(C)C  18.6 µM
9. CC[C@H](C)[C@H](NC(=O)[C@H](Cc1ccccc1)NC[C@H](Cc1ccccc1)NC(=O)[C@@H](NC(=O)[C@@H]1CCCN1C(=O)[C@@H](N)CCCCN)C(C)C)C(=O)N[C@@H](CC1CCCCC1)C(=O)O  13 µM
10. CC[C@H](C)[C@H](NC(=O)[C@H](CCSC)NC(=O)[C@H](CO)NC(=O)[C@H](CC1CCCCC1)NC[C@H](Cc1ccccc1)NC(=O)[C@H](CC1CCCCC1)NC(=O)[C@H](CO)NC(=O)[C@@H](N)CC(=O)O)C(=O)O  10.1 µM
11. NCCCC[C@H](NC(=O)[C@H](CC(N)=O)NC(=O)[C@H](Cc1ccccc1)NC(=O)[C@H](CO)NC[C@H](CCCN=C(N)N)NC(=O)[C@H](Cc1ccccc1)NC(=O)[C@H](CCCCN)NC(=O)[C@@H]1CCCN1)C(=O)O [6-Amino-2-[2-(2-{2-[2-(2-{6-amino-2-[(pyrrolidine-2-carbonyl)-amino]-hexanoylamino}-3-phenyl-propionylamino)-5-guanidino-pentylamino]-3-hydroxy-propionylamino}-3-phenyl-propionylamino)-3-carbamoyl-propionylamino]-hexanoic acid]  8.8 µM
12. CC[C@H](C)[C@H](NC(=O)[C@H](C)NC[C@H](Cc1ccccc1)NC(=O)[C@H](CCCNC(=N)N)NC(=O)[C@H](Cc1c[nH]c2ccccc12)NC(=O)[C@@H](N)CCSC)C(=O)N[C@H](C(=O)N[C@H](C(=O)O)[C@@H](C)O)[C@@H](C)CC [2-(2-{2-[2-(2-{2-[2-(2-Amino-4-methylsulfanyl-butyrylamino)-3-(1H-indol-3-yl)-propionylamino]-5-guanidino-pentanoylamino}-3-phenyl-propylamino)-propionylamino]-3-methyl-pentanoylamino}-3-methyl-pentanoylamino)-3-hydroxy-butyric acid]  6.5 µM
13. CC[C@H](C)[C@H](NC(=O)[C@H](CC(N)=O)NC(=O)[C@H](Cc1ccccc1)NC[C@H](CCCCN)NC(=O)[C@H](CC1CCCCC1)NC(=O)[C@H](CC1CCCCC1)NC(=O)[C@@H](N)CC1CCCCC1)C(=O)N[C@@H](CCCCN)C(=O)O [6-Amino-2-(2-{2-[2-(6-amino-2-{2-[2-(2-amino-3-cyclohexyl-propionylamino)-3-cyclohexyl-propionylamino]-3-cyclohexyl-propionylamino}-hexylamino)-3-phenyl-propionylamino]-3-carbamoyl-propionylamino}-3-methyl-pentanoylamino)-hexanoic acid]  6.3 µM
14. CC[C@H](C)[C@H](N)C(=O)N[C@@H](CC(=O)O)C(=O)NCC(=O)N[C@@H](CCCCN)CN[C@@H](CC(C)C)C(=O)N[C@@H](Cc1ccc(O)cc1)C(=O)N[C@@H](C)C(=O)N1CCC[C@H]1C(=O)O [1-{2-[2-[2-(6-Amino-2-{2-[2-(2-amino-3-methyl-pentanoylamino)-3-carboxy-propionylamino]-acetylamino}-hexylamino)-4-methyl-pentanoylamino]-3-(4-hydroxy-phenyl)-propionylamino]-propionyl}-pyrrolidine-2-carboxylic acid]  5.3 µM
15. CSCC[C@H](NC(=O)[C@H](Cc1ccc(O)cc1)NC[C@H](Cc1ccccc1)NC(=O)[C@H](CC(C)C)NC(=O)[C@H](C)NC(=O)[C@@H](N)CC1CCCCC1)C(=O)N[C@@H](Cc1ccc(O)cc1)C(=O)N[C@@H](Cc1ccc(O)cc1)C(=O)O [ChaALF(CH2NH)YMYY]  1.1 µM
16. CC(C)C[C@H](NC[C@H](Cc1ccccc1)NC(=O)[C@H](Cc1cnc[nH]1)NC(=O)[C@H](CCCCN)NC(=O)[C@@H](N)CC(=O)O)C(=O)N[C@@H](CC(C)C)C(=O)N[C@H](C(=O)N[C@@H](CCCCN)C(=O)O)C(C)C [6-Amino-2-{2-[2-(2-{2-[2-[6-amino-2-(2-amino-3-carboxy-propionylamino)-hexanoylamino]-3-(3H-imidazol-4-yl)-propionylamino]-3-phenyl-propylamino}-4-methyl-pentanoylamino)-4-methyl-pentanoylamino]-3-methyl-butyrylamino}-hexanoic acid]  1 µM
17. C[C@H](NC[C@H](CCCCN)NC(=O)[C@H](Cc1ccccc1)NC(=O)[C@H](CCCCN)NC(=O)[C@@H](N)CC(=O)O)C(=O)N[C@@H](CC1CCCCC1)C(=O)NCC(=O)N[C@@H](CCCCN)C(=O)O [6-Amino-2-(2-{2-[2-(6-amino-2-{2-[6-amino-2-(2-amino-3-carboxy-propionylamino)-hexanoylamino]-3-phenyl-propionylamino}-hexylamino)-propionylamino]-3-cyclohexyl-propionylamino}-acetylamino)-hexanoic acid]  0.6 µM
18. CC[C@H](C)[C@H](NC(=O)[C@H](C)NC(=O)[C@@H](N)CC1CCCCC1)C(=O)N[C@H](CN[C@@H](Cc1ccc(O)cc1)C(=O)N[C@@H](CCSC)C(=O)N[C@@H](Cc1ccc(O)cc1)C(=O)N[C@@H](Cc1ccc(O)cc1)C(=O)O)Cc1ccccc1  0.1 µM
